SMILES strings stand for the structures.

In turn, `CCCCN1CC(=O)N2[C@H](c3ccc(OC)cc3)c3[nH]c4ccccc4c3C[C@@H]2C1=O` [Example 85, (6R,12aR)-2,3,6,7,12,12a-Hexahydro-2-Butyl-6-(4-Methoxyphenyl)-Pyrazino(2′,1′:6,1)Pyrido(3,4-b)Indole-1,4-Dione] yielded a melting point of 183 to 184 °C.

Take `COc1ccc([C@@H]2c3[nH]c4ccccc4c3C[C@@H]3C(=O)N(C4CCCC4)CC(=O)N23)cc1` [Example 86, (6R,12aR)-2,3,6,7,12,12a-Hexahydro-2-Cyclopentyl-6-(4-Methoxyphenyl)-Pyrazino(2′,1′:6,1)Pyrido(3,4-b)Indole-1,4-Dione]: the melting point lay in the range of 210 to 211 °C. For the compound `O=C1[C@H]2Cc3c([nH]c4ccccc34)[C@@H](c3ccc4c(c3)CCC4)N2C(=O)CN1CC1CC1` [Example 94, (6R,12aR)-2,3,6,7,12,12a-Hexahydro-6-(5-Indanyl)-2-Cyclopropylmethylpyrazino(2′,1′:6,1)Pyrido(3,4-b)Indole-1,4-Dione], the melting point was found to be 176 °C. As for `COc1ccc(CCN2CC(=O)N3[C@H](c4ccc5c(c4)OCO5)c4[nH]c5ccccc5c4C[C@@H]3C2=O)cc1OC` [Example 104, (6R,12aR)-2,3,6,7,12,12a-Hexahydro-2-(3,4-Dimethoxyphenethyl)-6-(3,4-Methylenedioxyphenyl)-Pyrazino(2′,1′:6,1)Pyrido(3,4-b)Indole-1,4-Dione], the figure is 265 to 266 °C; as for `O=C1[C@H]2Cc3c([nH]c4ccccc34)[C@@H](c3ccc4c(c3)OCO4)N2C(=O)CN1Cc1ccco1` [Example 105, (6R,12aR)-2,3,6,7,12,12a-Hexahydro-2-Furfuryl-6-(3,4-Methylenedioxyphenyl)-Pyrazino(2′,1′:6,1)Pyrido(3,4-b)Indole-1,4-Dione], 219 °C. Regarding `CN1CC(=O)N2[C@H](c3ccc4c(c3)CCN4)c3[nH]c4ccccc4c3C[C@@H]2C1=O` [Example 111, (6R,12aR)-2,3,6,7,12,12a-Hexahydro-6-(5-Indolinyl)-2-Methyl-Pyrazino(2′,1′:6,1)Pyrido(3,4-b)Indole-1,4-Dione], the melting point came to 240 °C. Compound `CN1CC(=O)N2[C@H](c3ccc(O)c(O)c3)c3[nH]c4ccccc4c3C[C@@H]2C1=O` [Example 118, (6R, 12aR)-2,3,6,7,12,12a-Hexahydro-6-(3,4-Dihydroxyphenyl)-2-Methylpyrazino(2′,1′:6,1)Pyrido(3,4-b)Indole-1,4-Dione] displayed a melting point of 224 to 226 °C. For the compound `CN1CC(=O)N2[C@H](c3ccc4occc4c3)c3[nH]c4ccccc4c3C[C@@H]2C1=O` [Example 120, (6R, 12aR)-2,3,6,7, 12, 12a-Hexahydro-6-(5-Benzofuranyl)-2-Methyl-Pyrazino[2′,1′:6,1]Pyrido[3,4-b]Indole-1,4-Dione], the melting point was 291 to 293 °C. The compound `CC(C)N1CC(=O)N2[C@H](c3ccc4occc4c3)c3[nH]c4ccccc4c3C[C@@H]2C1=O` [Example 122, (6R, 12aR)-2,3,6,7, 12, 12a-Hexahydro-6-(5-Benzofuranyl)-2-Isopropyl-Pyrazino [2′,1′:6,1]Pyrido [3,4-B]Indole-1,4-Dione] showed a melting point of 291 to 292 °C. The compound `C[C@@H]1NC(=O)[C@H]2Cc3c([nH]c4ccccc34)[C@@H](c3ccc4occc4c3)N2C1=O` [Example 123, (3S, 6R, 12aR)-2,3,6,7, 12, 12a-Hexahydro-6-(5-Benzofuranyl)-3-Methyl-Pyrazino[2′,1′:6,1]Pyrido [3,4-b]Indole-1,4-Dione] showed a melting point of 150 to 151 °C.

What is called melting point is the temperature, or range, at which the solid turns liquid.

(Values after patent publication US20020035111A1, “Method of inhibiting neoplastic cells with tetracyclic pyrido[3,4-B] indole derivatives” (priority 1998, published 2002).)
